From patent publication US20050180982A1, “Cadherin-11 expression, an assay and treatment for cellular invasiveness” (THE UNIVERSITY OF BRITISH COLUMBIA, priority 1998, published 2005)

Columns and labels:
[1] = tested on: cad-11 mRNA in extravillous cytotrophoblasts; assay: Northern blot of cad-11 mRNA in extravillous cytotrophoblasts cultured with TGF-1; assay type: cell-based, human
Protocol: (§1) First trimester placentae were obtained from elective terminations of pregnancies (8-13 weeks). Extravillous cytotrophoblasts were propagated from first trimester placental explants as described by Graham et al. Biology of Reproduction 46:561-572. The chorionic villi were washed thoroughly in Dulbecco's Modified Eagle's Medium (DMEM; Gibco BRL. Burlington. Ont.) containing 25 mM glucose, 25 mM Hepes and […] gentamicin. The villi were minced finely and plated in 25 cm^2 tissue culture flasks containing DMEM supplemented with antibiotics and 10% heat-inactivated fetal calf serum (FCS). The fragments of chorionic villi were allowed to adhere for […], after which the non-adherent material was removed. The villous explants were cultured for a further 10-14 days, with the culture medium being replaced every 3 days. The propagated extravillous cytotrophoblasts were separated from the villous explants by a trypsin digestion (0.125% trypsin in Ca^2−, Mg^2−-free PBS) and plated in 60 mm culture dishes containing DMEM supplemented with antibiotics and 10% FCS. The purity of the extravillous cytotrophoblast cultures was determined by cytokeratin immunostaining. Only cultures which were 100% positive for cytokeratin immunostaining were used.
Extravillous cytotrophoblasts grown to 70% confluence in DMEM containing 10% FCS, were washed with PBS and cultured in serum-free DMEM for a further 24 hours. […]
The Northern blots were probed with a human cad-11 cDNA probe according to the methods of MacCalman et al. (1992) [supra]. […] The absorbance values obtained for the cad-11 mRNA transcript were normalized relative to the 18 rRNA absorbance value.
The results are presented as the mean relative absorbance (±SE) for three independent experiments. Statistical differences between treatments were assessed by the analysis of variance (ANOVA). […] Significant differences between the means were determined using the least significant test.

[2] = tested on: cad-11 protein in extravillous cytotrophoblasts; assay: Western blot of cad-11 protein in extravillous cytotrophoblasts cultured with TGF-1; assay type: cell-based, human
Protocol: as §1
(§2) Extravillous cytotrophoblasts grown to 70% confluence in DMEM containing 10% FCS, were washed with PBS and cultured in serum-free DMEM for a further 24 hours. This culture medium was removed and after the cells had been washed twice with PBS, replaced with serum-free DMEM containing porcine TGF-1 (1 pg-10 ng/ml); Sigma Chemical Co., St. Louis. MO) or vehicle ([…]). The cells were fixed for morphological assessment and immunocytochemistry or harvested for Northern or Western blot analysis after 24 hours of culture in the presence or absence of TGF-1.
For Western blot analysis, the trophoblasts were incubated in 100 l of cell lysis buffer (Tris-HCl, pH 7.5 containing 0.5% Nonidet P40, 0.5 mM CaCl2 and 1.0 mM PMSF) at 4° C. for 30 minutes on a rocking platform. The cell lysates were centrifuges at 10.000×g for 20 minutes and the supernatant used in the Wester blot analyses. Aliquots were then taken from the samples and subjected to SDS-polyacrylamide gel electrophoresis under reducing conditions, as described by Laemmli (1970) Nature 227:680-685. The stacking gels contained 5% acrylamide and the separating eels were composed of 7.5% acrylamide. […]
The results are presented as the mean relative absorbance (±SE) for three independent experiments. Statistical differences between treatments were assessed by the analysis of variance (ANOVA). […] Significant differences between the means were determined using the least significant test. […]

[3] = tested on: extravillous cytotrophoblasts; assay: Immunocytochemistry for cad-11 and morphology of extravillous cytotrophoblasts cultured with TGF-1; assay type: cell-based, human
Protocol: as §1, §2
The cells were washed twice in PBS and fixed in 0.1% glutaraldehyde/2% formaldehyde at 4° C. for 20 minutes Immunocytochemistry was performed using a mouse monoclonal antibody directed against human cytokeratin filaments 8 and 18 (Becton Dickson. San lose. CA) or a further monoclonal antibody directed against human cad-11 (C11-113E; ICOS Corporation. Bothell, Wash.; ATCC accession no. HB-12515) as described in (MacCalman et al. 1996 [supra] and Getsios et al. 1998 [supra]). Sequential incubations were performed according to the methods of Cartun and Pedersen (1989) J. of Histotechnology 12:273-280 and included 10% normal horse serum for 30 minutes, primary antiserum at 37° C. for 1 hours, secondary biotinylated antibody at 37° C. for 45 minutes, streptavidin-biotinylated horseradish peroxidase complex reagent at 37° C. for 30 minutes, and three five minutes washes in PBS. […]

[4] = tested on: cad-11 mRNA in PC3 prostate cancer cell line; assay: Semiquantitative PCR of cad-11 mRNA in PC3 cells cultured with TGF-1; assay type: cell-based; settings: TGF-1 10 pg-1 ng/ml for 24 hours
From the text: (§3) However, low levels of the mRNA transcripts encoding E-cadherin and cad-11 were also detected in these cell lines.
(§4) The increase in cad-11 was concomitant with a decrease in cad-6 and N-cadherin mRNA levels.

[5] = tested on: cad-6 mRNA in PC3 prostate cancer cell line; assay: PCR of cad-6 mRNA in PC3 cells cultured with TGF-1; assay type: cell-based; settings: TGF-1 10 pg-1 ng/ml for 24 hours
From the text: as §3, §4

[6] = tested on: N-cadherin mRNA in PC3 prostate cancer cell line; assay: PCR of N-cadherin mRNA in PC3 cells cultured with TGF-1; assay type: cell-based; settings: TGF-1 10 pg-1 ng/ml for 24 hours
From the text: as §3, §4

[7] = 1 or 10 ng/ml of TGF-1, 24 hours, only these concentrations
[8] = TGF-1 1 pg-10 ng/ml, 24 hours, dose-dependent manner

TGF-1: porcine TGF-1 (transforming growth factor), Sigma Chemical Co.
cad-11 mRNA levels at 1 or 10 ng/ml [1, 7]: significant increase
TGF-1 concentration giving maximum cad-11 mRNA levels ([1]; 24 hours): 10 ng/mL
cad-11 mRNA levels, dose dependence [1, 8]: increased
cad-11 protein expression levels at 1 or 10 ng/ml [2, 7]: significant increase
TGF-1 concentration giving maximum cad-11 expression levels ([2]; 24 hours): 10 ng/mL
cad-11 protein expression levels, dose dependence [2, 8]: increase
cad-11 levels by Western blot, dose dependence ([2]; porcine TGF-1 10 pg-10 ng/ml): increased
cellular structures observed ([3]; 0.1 ng/ml of TGF-1 for 12 hours): Large cellular aggregates
large cellular aggregates and multinucleated cells ([3]; 10 ng/ml TGF-1, 24 hours): predominant
number of cells expressing cad-11 ([3]; 1 or 10 ng/ml of TGF-1, 24 hours, immunostaining): marked increase
cad-11 immunostaining of cell aggregates ([3]; high concentrations of TGF-1): Intense immunostaining
Cad-11 mRNA levels [4]: readily detectable
cad-6 mRNA levels [5]: decrease
N-cadherin mRNA levels [6]: decrease
